According to US10654895B2, “Polypeptide, DNA molecule encoding the polypeptide, vector, preparation method and use” (WUHAN MORE BIOTECHNOLOGY CO., LTD., priority 2013, dated 2020):
Where two headings read alike, the source gives them in different places. No end group written: not given here.

Legend:
[1] = tested on: Staphylococcus aureus (RA) ATCC25923; settings: for MIC: Staphylococcus aureus (RA) ATCC25923, >25 means greater than or equal to 50 μg/mL; for inhibitory effect / antiseptic activity in words: against Staphylococcus aureus (RA) ATCC25923 and/or Escherichia coli ATCC25922
[2] = tested on: Escherichia coli (E. coli) ATCC25922; settings: >25 means greater than or equal to 50 μg/mL
[3] = tested on: Escherichia coli
[4] = tested on: Staphylococcus aureus
[5] = tested on: Methicillin-resistant Staphylococcus aureus (MRSA); settings: Methicillin-resistant Staphylococcus aureus (Table 8)
[6] = tested on: Pseudomonas aeruginosa; settings: Pseudomonas aeruginosa, strain not specified (Table 8)
[7] = standard Escherichia coli (Table 2)
[8] = standard Staphylococcus aureus (Table 2)
[9] = Escherichia coli, strain not specified (Table 8)
[10] = Staphylococcus aureus (methicillin-sensitive), strain not specified (Table 8)

Substance “RLLRIF [Ctryamp polypeptide mutant 15, RLLRIF]” has an MIC [1] greater than 25 µg/mL and an MIC [2] greater than 25 µg/mL.
For “FIRRLLRIF [Ctryamp polypeptide mutant 12, FIRRLLRIF]”, the MIC [1] was 12.5 µg/mL and the MIC [2] was 25 µg/mL.
Substance “ARLLRIFFIRIARLLRIF [Ctryamp polypeptide mutant 27, ARLLRIFFIRIARLLRIF]” has an MIC [1] greater than 25 µg/mL and an MIC [2] greater than 25 µg/mL.
With “FIKIGKILKIF [Ctryamp polypeptide mutant 7, FIKIGKILKIF]” the MIC [1] was greater than 25 µg/mL and the MIC [2] was 12.5 µg/mL.
With FIKIARLLRIF [Ctryamp-R3K, FIKIARLLRIF] the “Minimum inhibitory concentration MIC” value [3, 7] was 12.25 µg/mL and the “Minimum inhibitory concentration MIC” value [4, 8] was 6.25 µg/mL.
In the case of “FIRIARLLIF [Ctryamp polypeptide mutant 11, FIRIARLLIF]”, the MIC [1] is reported as greater than 25 µg/mL and the MIC [2] is reported as greater than 25 µg/mL.
For FIRIARLLKIF [Ctryamp-R9K, FIRIARLLKIF], the “Minimum inhibitory concentration MIC” value [3, 7] was 12.5 µg/mL and the “Minimum inhibitory concentration MIC” value [4, 8] was 6.25 µg/mL.
“FIKIGKLLKIF [Ctryamp polypeptide mutant 6, FIKIGKLLKIF]” was tested, and the MIC [1] was 25 µg/mL and the MIC [2] was 12.5 µg/mL.
“FIRIADLLRIF [Ctryamp polypeptide mutant 2, FIRIADLLRIF]” gave an MIC [1] of 25 µg/mL and an MIC [2] greater than 25 µg/mL.
With “FIGAIARLLSKIF [BmKAMP1, reference compound]” the “Minimum inhibitory concentration MIC” value [5] was 12.5 µg/mL, the “Minimum inhibitory concentration MIC” value [3, 9] was greater than 100 µg/mL and the “Minimum inhibitory concentration MIC” value [4, 10] was 3.13 µg/mL. The “Minimum inhibitory concentration MIC” value [6] was greater than 100 µg/mL.
For FIKIARLLKIF [Ctryamp-2, FIKIARLLKIF], the MIC [1] was 12.5 µg/mL, the “Minimum inhibitory concentration MIC” value [3, 7] was 6.25 µg/mL and the MIC [2] was 12.5 µg/mL. The “Minimum inhibitory concentration MIC” value [4, 8] was 12.5 µg/mL.
“FIGAIARLLRKIF [ABP-W1, reference compound]” was tested, and the “Minimum inhibitory concentration MIC” value [5] was 8 µg/mL, the “Minimum inhibitory concentration MIC” value [3, 9] was greater than 100 µg/mL and the “Minimum inhibitory concentration MIC” value [4, 10] was 3.13 µg/mL. The “Minimum inhibitory concentration MIC” value [6] was greater than 100 µg/mL.
“FIRKIARLLRIF [Ctryamp polypeptide mutant 19, FIRKIARLLRIF]” showed an MIC [1] of 6.25 µg/mL and an MIC [2] of 6.25 µg/mL.
With FIRIAKLLRIF [Ctryamp-R5K, FIRIAKLLRIF] the “Minimum inhibitory concentration MIC” value [3, 7] was 6.25 µg/mL and the “Minimum inhibitory concentration MIC” value [4, 8] was 6.25 µg/mL.
Work on “RLLRIFFIRIARLLRIF [Ctryamp polypeptide mutant 26, RLLRIFFIRIARLLRIF]” yielded an MIC [1] greater than 25 µg/mL and an MIC [2] greater than 25 µg/mL.
FIHIAHLLRIF [Ctryamp-5, FIHIAHLLRIF] was tested, and the “Minimum inhibitory concentration MIC” value [3, 7] was 6.25 µg/mL and the “Minimum inhibitory concentration MIC” value [4, 8] was 12.5 µg/mL.
Work on “LRIFFIRIARLLRIF [Ctryamp polypeptide mutant 24, LRIFFIRIARLLRIF]” yielded an MIC [1] of 25 µg/mL and an MIC [2] greater than 25 µg/mL.
In the case of “Ac-FIRIARLLRIF [Ctryamp polypeptide mutant 32, Ac-FIRIARLLRIF]”, the MIC [1] is reported as 6.25 µg/mL, the “inhibitory effect / antiseptic activity in words” value [1] is reported as “still have the antiseptic activity” and the MIC [2] is reported as 25 µg/mL.
Work on “IARLLRIFFIRIARLLRIF [Ctryamp polypeptide mutant 28, IARLLRIFFIRIARLLRIF]” yielded an MIC [1] greater than 25 µg/mL and an MIC [2] greater than 25 µg/mL.
“FRIARLLRIF [Ctryamp polypeptide mutant 9, FRIARLLRIF]” showed an MIC [1] of 12.5 µg/mL and an MIC [2] of 6.25 µg/mL.
“GFIRIARLLRIF [Ctryamp polypeptide mutant 16, GFIRIARLLRIF]” showed an MIC [1] of 6.25 µg/mL and an MIC [2] of 6.25 µg/mL.
“FIRIARLLEIF [Ctryamp polypeptide mutant 1, FIRIARLLEIF]” was tested, and the MIC [1] was greater than 25 µg/mL, the “inhibitory effect / antiseptic activity in words” value [1] was “no antiseptic activity” and the MIC [2] was greater than 25 µg/mL.
FIHIARLLHIF [Ctryamp-6, FIHIARLLHIF] was tested, and the “Minimum inhibitory concentration MIC” value [3, 7] was 6.25 µg/mL and the “Minimum inhibitory concentration MIC” value [4, 8] was 6.25 µg/mL.
In the case of FIKIAKLLKIF [Ctryamp-4, FIKIAKLLKIF], the MIC [1] is reported as 25 µg/mL, the “Minimum inhibitory concentration MIC” value [3, 7] is reported as 6.25 µg/mL and the MIC [2] is reported as 12.5 µg/mL. For the same substance, the “Minimum inhibitory concentration MIC” value [4, 8] was 12.5 µg/mL.
“FIKRIARLLRIF [Ctryamp polypeptide mutant 20, FIKRIARLLRIF]” was tested, and the MIC [1] was 6.25 µg/mL and the MIC [2] was 6.25 µg/mL.
With FIRIAKLLKIF [Ctryamp-3, FIRIAKLLKIF] the MIC [1] was 12.5 µg/mL, the “Minimum inhibitory concentration MIC” value [3, 7] was 12.5 µg/mL and the MIC [2] was 12.5 µg/mL. The “Minimum inhibitory concentration MIC” value [4, 8] was 6.25 µg/mL.
In the case of “IRIARLLRIFFIRIARLLRIF [Ctryamp polypeptide mutant 30]”, the MIC [1] is reported as greater than 25 µg/mL and the MIC [2] is reported as greater than 25 µg/mL.
Work on “FIRARLLRIF [Ctryamp polypeptide mutant 10, FIRARLLRIF]” yielded an MIC [1] greater than 25 µg/mL and an MIC [2] greater than 25 µg/mL.
With FIRIAKLLHIF [Ctryamp-8, FIRIAKLLHIF] the “Minimum inhibitory concentration MIC” value [3, 7] was 12.5 µg/mL and the “Minimum inhibitory concentration MIC” value [4, 8] was 6.25 µg/mL.
FIHIAKLLRIF [Ctryamp-7, FIHIAKLLRIF] was tested, and the “Minimum inhibitory concentration MIC” value [3, 7] was 12.5 µg/mL and the “Minimum inhibitory concentration MIC” value [4, 8] was 6.25 µg/mL.
For FIRIAHLLRIF [Ctryamp-R5H, FIRIAHLLRIF], the “Minimum inhibitory concentration MIC” value [3, 7] was 12.5 µg/mL and the “Minimum inhibitory concentration MIC” value [4, 8] was 6.25 µg/mL.
FIRIARLLHIF [Ctryamp-R9H, FIRIARLLHIF] was tested, and the “Minimum inhibitory concentration MIC” value [3, 7] was 6.25 µg/mL and the “Minimum inhibitory concentration MIC” value [4, 8] was 6.25 µg/mL.
In the case of “FIRRLRIF [Ctryamp polypeptide mutant 13, FIRRLRIF]”, the MIC [1] is reported as greater than 25 µg/mL and the MIC [2] is reported as greater than 25 µg/mL.
For “RIARLLRIFFIRIARLLRIF [Ctryamp polypeptide mutant 29]”, the MIC [1] was greater than 25 µg/mL and the MIC [2] was greater than 25 µg/mL.
In the case of “FIRIARLLKRIF [Ctryamp polypeptide mutant 18, FIRIARLLKRIF]”, the MIC [1] is reported as 6.25 µg/mL and the MIC [2] is reported as 12.5 µg/mL.
“FIRIARLRIF [Ctryamp polypeptide mutant 8, FIRIARLRIF]” gave an MIC [1] of 25 µg/mL and an MIC [2] of 12.5 µg/mL.
For “FIRLRIF [Ctryamp polypeptide mutant 14, FIRLRIF]”, the MIC [1] was greater than 25 µg/mL and the MIC [2] was greater than 25 µg/mL.
In the case of FIHIARLLRIF [Ctryamp-R3H, FIHIARLLRIF], the “Minimum inhibitory concentration MIC” value [3, 7] is reported as 6.25 µg/mL and the “Minimum inhibitory concentration MIC” value [4, 8] is reported as 6.25 µg/mL.
Work on “FFIRIARLLRIF [Ctryamp polypeptide mutant 21, FFIRIARLLRIF]” yielded an MIC [1] of 12.5 µg/mL and an MIC [2] of 25 µg/mL.
“FIRIARLLRKIF [Ctryamp polypeptide mutant 17, FIRIARLLRKIF]” gave an MIC [1] of 6.25 µg/mL and an MIC [2] of 12.5 µg/mL.
“LLRIFFIRIARLLRIF [Ctryamp polypeptide mutant 25, LLRIFFIRIARLLRIF]” showed an MIC [1] of 25 µg/mL and an MIC [2] greater than 25 µg/mL.
In the case of “RIFFIRIARLLRIF [Ctryamp polypeptide mutant 23, RIFFIRIARLLRIF]”, the MIC [1] is reported as 12.5 µg/mL and the MIC [2] is reported as 12.5 µg/mL.
Substance “IFFIRIARLLRIF [Ctryamp polypeptide mutant 22, IFFIRIARLLRIF]” has an MIC [1] of 12.5 µg/mL and an MIC [2] greater than 25 µg/mL.
For FIKIAKLLRIF [Ctryamp-1, FIKIAKLLRIF], the “Minimum inhibitory concentration MIC” value [3, 7] was 6.25 µg/mL and the “Minimum inhibitory concentration MIC” value [4, 8] was 6.25 µg/mL.
With “FIKRIARLLRKIF [BmKAMP1-M, reference compound]” the “Minimum inhibitory concentration MIC” value [5] was 6.25 µg/mL, the “Minimum inhibitory concentration MIC” value [3, 9] was 12.5 µg/mL and the “Minimum inhibitory concentration MIC” value [4, 10] was 12.5 µg/mL. For the same substance, the “Minimum inhibitory concentration MIC” value [6] was 50 µg/mL.
In the case of “FIRIARLLRIFFIRIARLLRIF [Ctryamp polypeptide mutant 31]”, the MIC [1] is reported as greater than 25 µg/mL and the MIC [2] is reported as greater than 25 µg/mL.
